Laboratory results as given in the supplement of paper PMC10307832.

Columns and labels:
Test in all cases: relative viability (nuclei count vs DMSO), 5 days (fraction); higher = more cells survive
IDH-C35 + Navitoclax = compound: Cc1ccccc1C(C(=O)NC1CCCCC1)N(C(=O)Cn1ccnc1C)c1cccc(F)c1 [IDH-C35] + CC1(C)CCC(c2ccc(Cl)cc2)=C(CN2CCN(c3ccc(C(=O)NS(=O)(=O)c4ccc(N[C@H](CCN5CCOCC5)CSc5ccccc5)c(S(=O)(=O)C(F)(F)F)c4)cc3)CC2)C1 [Navitoclax] (partner 0.5 µM)
How it was run: (§1)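 Lung cancer cell lines in 1536-well plates got either a single drug or a fixed anchor-drug dose together with five library-drug doses (not always all listed) in √10 steps, by pin tool, on the day after seeding. Nuclei were counted after 5 days, and relative viability is the treated-to-vehicle ratio of nuclei counts. Values are medians of duplicate plates.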

IDH-C35 + Crizotinib = compound: Cc1ccccc1C(C(=O)NC1CCCCC1)N(C(=O)Cn1ccnc1C)c1cccc(F)c1 [IDH-C35] + C[C@@H](Oc1cc(-c2cnn(C3CCNCC3)c2)cnc1N)c1c(Cl)ccc(F)c1Cl [Crizotinib] (partner 1 µM)
How it was run: as §1

[1] = compound: CC1=C(C(=NN1)C)CC2=C(C3=C(S2)N(C(=O)N(C3=O)C)CC(C)C)C(=O)N4C[C@@H](CO4)O + Cc1cc(Nc2cc(N3CCN(C)CC3)nc(Sc3ccc(NC(=O)C4CC4)cc3)n2)n[nH]1 [Tozasertib] (partner 0.1 µM)
How it was run: as §1

IDH-C35 + Pemetrexed = compound: Cc1ccccc1C(C(=O)NC1CCCCC1)N(C(=O)Cn1ccnc1C)c1cccc(F)c1 [IDH-C35] + Nc1nc2[nH]cc(CCc3ccc(C(=O)N[C@@H](CCC(=O)O)C(=O)O)cc3)c2c(=O)[nH]1 [Pemetrexed] (partner 0.2 µM)
How it was run: as §1

Cell Line: NCI-H441
- relative viability (IDH-C35 + Navitoclax; first compound 0.08 µM): 0.694
- relative viability (IDH-C35 + Navitoclax; first compound 0.8 µM): 0.568
- relative viability (IDH-C35 + Navitoclax; first compound 2.53 µM): 0.582
- relative viability (IDH-C35 + Navitoclax; first compound 8 µM): 0.675
- relative viability (IDH-C35 + Crizotinib; first compound 0.08 µM): 0.964
- relative viability (IDH-C35 + Crizotinib; first compound 0.253 µM): 0.673
- relative viability (IDH-C35 + Crizotinib; first compound 0.8 µM): 0.649
- relative viability (IDH-C35 + Crizotinib; first compound 2.53 µM): 0.703
- relative viability (IDH-C35 + Crizotinib; first compound 8 µM): 0.749
- relative viability ([1]; first compound 0.0025 µM): 0.657
- relative viability ([1]; first compound 0.007906 µM): 0.647
- relative viability ([1]; first compound 0.025 µM): 0.575
- relative viability ([1]; first compound 0.07906 µM): 0.664
- relative viability ([1]; first compound 0.25 µM): 0.623
- relative viability (IDH-C35 + Pemetrexed; first compound 0.08 µM): 0.256
- relative viability (IDH-C35 + Pemetrexed; first compound 0.253 µM): 0.272
- relative viability (IDH-C35 + Pemetrexed; first compound 0.8 µM): 0.269
- relative viability (IDH-C35 + Pemetrexed; first compound 2.53 µM): 0.292
- relative viability (IDH-C35 + Pemetrexed; first compound 8 µM): 0.244

Cell Line: LOU-NH91
- relative viability (IDH-C35 + Navitoclax; first compound 0.08 µM): 0.69
- relative viability (IDH-C35 + Navitoclax; first compound 0.253 µM): 0.78
- relative viability (IDH-C35 + Navitoclax; first compound 0.8 µM): 0.722
- relative viability (IDH-C35 + Navitoclax; first compound 2.53 µM): 0.635
- relative viability (IDH-C35 + Navitoclax; first compound 8 µM): 0.735
- relative viability (IDH-C35 + Crizotinib; first compound 0.08 µM): 0.741
- relative viability (IDH-C35 + Crizotinib; first compound 0.253 µM): 0.754
- relative viability (IDH-C35 + Crizotinib; first compound 0.8 µM): 0.722
- relative viability (IDH-C35 + Crizotinib; first compound 2.53 µM): 0.743
- relative viability (IDH-C35 + Crizotinib; first compound 8 µM): 0.751
- relative viability ([1]; first compound 0.0025 µM): 0.723
- relative viability ([1]; first compound 0.007906 µM): 0.674
- relative viability ([1]; first compound 0.025 µM): 0.709
- relative viability ([1]; first compound 0.07906 µM): 0.792
- relative viability ([1]; first compound 0.25 µM): 0.838
- relative viability (IDH-C35 + Pemetrexed; first compound 0.08 µM): 0.422
- relative viability (IDH-C35 + Pemetrexed; first compound 0.253 µM): 0.393
- relative viability (IDH-C35 + Pemetrexed; first compound 0.8 µM): 0.425
- relative viability (IDH-C35 + Pemetrexed; first compound 2.53 µM): 0.347
- relative viability (IDH-C35 + Pemetrexed; first compound 8 µM): 0.361

Cell Line: NCI-H3122
- relative viability (IDH-C35 + Navitoclax; first compound 0.08 µM): 1.03
- relative viability (IDH-C35 + Navitoclax; first compound 0.253 µM): 0.997
- relative viability (IDH-C35 + Navitoclax; first compound 0.8 µM): 0.96
- relative viability (IDH-C35 + Navitoclax; first compound 2.53 µM): 1.01
- relative viability (IDH-C35 + Navitoclax; first compound 8 µM): 1.08
- relative viability (IDH-C35 + Crizotinib; first compound 0.08 µM): 0.292
- relative viability (IDH-C35 + Crizotinib; first compound 0.253 µM): 0.299
- relative viability (IDH-C35 + Crizotinib; first compound 0.8 µM): 0.295
- relative viability (IDH-C35 + Crizotinib; first compound 2.53 µM): 0.252
- relative viability (IDH-C35 + Crizotinib; first compound 8 µM): 0.27
- relative viability ([1]; first compound 0.0025 µM): 0.37
- relative viability ([1]; first compound 0.007906 µM): 0.242
- relative viability ([1]; first compound 0.025 µM): 0.376
- relative viability ([1]; first compound 0.07906 µM): 0.414
- relative viability ([1]; first compound 0.25 µM): 0.485
- relative viability (IDH-C35 + Pemetrexed; first compound 0.08 µM): 0.203
- relative viability (IDH-C35 + Pemetrexed; first compound 0.253 µM): 0.182
- relative viability (IDH-C35 + Pemetrexed; first compound 0.8 µM): 0.203
- relative viability (IDH-C35 + Pemetrexed; first compound 2.53 µM): 0.207
- relative viability (IDH-C35 + Pemetrexed; first compound 8 µM): 0.2

Cell Line: NCI-H460
- relative viability (IDH-C35 + Navitoclax; first compound 0.08 µM): 1.26
- relative viability (IDH-C35 + Navitoclax; first compound 0.253 µM): 1.19
- relative viability (IDH-C35 + Navitoclax; first compound 0.8 µM): 1.06
- relative viability (IDH-C35 + Navitoclax; first compound 2.53 µM): 1.07
- relative viability (IDH-C35 + Navitoclax; first compound 8 µM): 1.21
- relative viability (IDH-C35 + Crizotinib; first compound 0.08 µM): 1
- relative viability (IDH-C35 + Crizotinib; first compound 0.253 µM): 0.989
- relative viability (IDH-C35 + Crizotinib; first compound 0.8 µM): 0.782
- relative viability (IDH-C35 + Crizotinib; first compound 2.53 µM): 0.814
- relative viability (IDH-C35 + Crizotinib; first compound 8 µM): 0.955
- relative viability ([1]; first compound 0.0025 µM): 0.493
- relative viability ([1]; first compound 0.007906 µM): 0.337
- relative viability ([1]; first compound 0.025 µM): 0.494
- relative viability ([1]; first compound 0.07906 µM): 0.479
- relative viability ([1]; first compound 0.25 µM): 0.54
- relative viability (IDH-C35 + Pemetrexed; first compound 0.08 µM): 0.0621
- relative viability (IDH-C35 + Pemetrexed; first compound 0.253 µM): 0.0643
- relative viability (IDH-C35 + Pemetrexed; first compound 0.8 µM): 0.0648
- relative viability (IDH-C35 + Pemetrexed; first compound 2.53 µM): 0.0655
- relative viability (IDH-C35 + Pemetrexed; first compound 8 µM): 0.0759

Cell Line: NCI-H1734
- relative viability (IDH-C35 + Navitoclax; first compound 0.08 µM): 0.9
- relative viability (IDH-C35 + Navitoclax; first compound 0.253 µM): 0.849
- relative viability (IDH-C35 + Navitoclax; first compound 0.8 µM): 0.827
- relative viability (IDH-C35 + Navitoclax; first compound 2.53 µM): 0.796
- relative viability (IDH-C35 + Navitoclax; first compound 8 µM): 0.791
- relative viability (IDH-C35 + Crizotinib; first compound 0.08 µM): 0.69
- relative viability (IDH-C35 + Crizotinib; first compound 0.253 µM): 0.729
- relative viability (IDH-C35 + Crizotinib; first compound 0.8 µM): 0.623
- relative viability (IDH-C35 + Crizotinib; first compound 2.53 µM): 0.638
- relative viability (IDH-C35 + Crizotinib; first compound 8 µM): 0.729
- relative viability ([1]; first compound 0.0025 µM): 0.309
- relative viability ([1]; first compound 0.007906 µM): 0.248
- relative viability ([1]; first compound 0.025 µM): 0.25
- relative viability ([1]; first compound 0.07906 µM): 0.234
- relative viability ([1]; first compound 0.25 µM): 0.259
- relative viability (IDH-C35 + Pemetrexed; first compound 0.08 µM): 0.432
- relative viability (IDH-C35 + Pemetrexed; first compound 0.253 µM): 0.423
- relative viability (IDH-C35 + Pemetrexed; first compound 0.8 µM): 0.443
- relative viability (IDH-C35 + Pemetrexed; first compound 2.53 µM): 0.413
- relative viability (IDH-C35 + Pemetrexed; first compound 8 µM): 0.409

Cell Line: LXF-289
- relative viability (IDH-C35 + Navitoclax; first compound 0.08 µM): 0.968
- relative viability (IDH-C35 + Navitoclax; first compound 0.253 µM): 0.931
- relative viability (IDH-C35 + Navitoclax; first compound 0.8 µM): 0.961
- relative viability (IDH-C35 + Navitoclax; first compound 2.53 µM): 0.896
- relative viability (IDH-C35 + Navitoclax; first compound 8 µM): 0.987
- relative viability (IDH-C35 + Crizotinib; first compound 0.08 µM): 0.794
- relative viability (IDH-C35 + Crizotinib; first compound 0.253 µM): 0.774
- relative viability (IDH-C35 + Crizotinib; first compound 0.8 µM): 0.771
- relative viability (IDH-C35 + Crizotinib; first compound 2.53 µM): 0.798
- relative viability (IDH-C35 + Crizotinib; first compound 8 µM): 0.798
- relative viability ([1]; first compound 0.0025 µM): 0.205
- relative viability ([1]; first compound 0.007906 µM): 0.213
- relative viability ([1]; first compound 0.025 µM): 0.18
- relative viability ([1]; first compound 0.07906 µM): 0.186
- relative viability ([1]; first compound 0.25 µM): 0.22
- relative viability (IDH-C35 + Pemetrexed; first compound 0.08 µM): 1.02
- relative viability (IDH-C35 + Pemetrexed; first compound 0.253 µM): 0.857
- relative viability (IDH-C35 + Pemetrexed; first compound 0.8 µM): 0.859
- relative viability (IDH-C35 + Pemetrexed; first compound 2.53 µM): 0.894
- relative viability (IDH-C35 + Pemetrexed; first compound 8 µM): 0.797

Cell Line: H3255
- relative viability (IDH-C35 + Navitoclax; first compound 0.08 µM): 0.577
- relative viability (IDH-C35 + Navitoclax; first compound 0.253 µM): 0.543
- relative viability (IDH-C35 + Navitoclax; first compound 0.8 µM): 0.495
- relative viability (IDH-C35 + Navitoclax; first compound 2.53 µM): 0.606
- relative viability (IDH-C35 + Navitoclax; first compound 8 µM): 0.636
- relative viability (IDH-C35 + Crizotinib; first compound 0.08 µM): 0.898
- relative viability (IDH-C35 + Crizotinib; first compound 0.253 µM): 0.9
- relative viability (IDH-C35 + Crizotinib; first compound 0.8 µM): 0.897
- relative viability (IDH-C35 + Crizotinib; first compound 2.53 µM): 0.773
- relative viability (IDH-C35 + Crizotinib; first compound 8 µM): 0.848
- relative viability ([1]; first compound 0.0025 µM): 0.803
- relative viability ([1]; first compound 0.007906 µM): 0.768
- relative viability ([1]; first compound 0.025 µM): 0.657
- relative viability ([1]; first compound 0.07906 µM): 0.56
- relative viability ([1]; first compound 0.25 µM): 0.59
- relative viability (IDH-C35 + Pemetrexed; first compound 0.08 µM): 0.595
- relative viability (IDH-C35 + Pemetrexed; first compound 0.253 µM): 0.589
- relative viability (IDH-C35 + Pemetrexed; first compound 0.8 µM): 0.573
- relative viability (IDH-C35 + Pemetrexed; first compound 2.53 µM): 0.632
- relative viability (IDH-C35 + Pemetrexed; first compound 8 µM): 0.499
